Measured values: patent US9320276B2, “N-hetarylmethyl pyrazolylcarboxamides” (BAYER INTELLECTUAL PROPERTY GMBH, priority 2010, dated 2016)

Columns and labels:
[1] = logP by HPLC on reversed-phase column (EEC Directive 79/831 Annex V.A8); type: physicochemical; conditions: 40° C., 0.1% aqueous formic acid and acetonitrile, linear gradient 10% to 90% acetonitrile
Description: In table 1, the logP values were determined in accordance with EEC Directive 79/831 Annex V.A8 by HPLC (High Performance Liquid Chromatography) on a reversed-phase column (C 18), using the method described below: Temperature: 40° C.; Mobile phases: 0.1% aqueous formic acid and acetonitrile; linear gradient from 10% acetonitrile to 90% acetonitrile. Calibration was carried out using unbranched alkan-2-ones (comprising 3 to 16 carbon atoms) with known logP values (determination of the logP values by the retention times using linear interpolation between two successive alkanones). lambda-max-values were determined using UV-spectra from 200 nm to 400 nm and the peak values of the chromatographic signals.

Sphaerotheca fuliginea = experiment: in vivo preventive test on Sphaerotheca fuliginea (cucumber); conditions: 500 ppm of active ingredient, evaluated 7 days after inoculation
Description: Solvent: 49 parts by weight of N,N-dimethylformamide Emulsifier: 1 part by weight of Alkylarylpolyglycolether To produce a suitable preparation of active compound, 1 part by weight of active compound is mixed with the stated amounts of solvent and emulsifier, and the concentrate is diluted with water to the desired concentration. To test for preventive activity, young plants are sprayed with the preparation of active compound at the stated rate of application. One day after this treatment, the plants are inoculated with an aqueous spore suspension of Sphaerotheca fuliginea. Then the plants are placed in a greenhouse at approximately 23° C. and a relative atmospheric humidity of approximately 70%. The test is evaluated 7 days after the inoculation. 0% means an efficacy which corresponds to that of the untreated control, while an efficacy of 100% means that no disease is observed.

Alternaria solani = experiment: in vivo preventive test on Alternaria solani (tomato); conditions: 500 ppm of active ingredient, evaluated 7 days after inoculation
Description: Solvent: 49 parts by weight of N,N-dimethylformamide Emulsifier: 1 part by weight of Alkylarylpolyglycolether To produce a suitable preparation of active compound, 1 part by weight of active compound is mixed with the stated amounts of solvent and emulsifier, and the concentrate is diluted with water to the desired concentration. To test for preventive activity, young plants are sprayed with the preparation of active compound at the stated rate of application. One day after this treatment, the plants are inoculated with an aqueous spore suspension of Alternaria solani. The plants remain for one day in an incubation cabinet at approximately 22° C. and a relative atmospheric humidity of 100%. Then the plants are placed in an incubation cabinet at approximately 20° C. and a relative atmospheric humidity of 96%. The test is evaluated 7 days after the inoculation. 0% means an efficacy which corresponds to that of the untreated control while an efficacy of 100% means that no disease is observed.

Pyrenophora teres = experiment: in vivo preventive test on Pyrenophora teres (barley); conditions: 500 ppm of active ingredient, evaluated 7-9 days after inoculation
Description: (§1) Solvent: 49 parts by weight of N,N-dimethylformamide Emulsifier: 1 part by weight of alkylaryl polyglycol ether To produce a suitable preparation of active compound, 1 part by weight of active compound is mixed with the stated amounts of solvent and emulsifier, and the concentrate is diluted with water to the desired concentration. To test for preventive activity, young plants are sprayed with the preparation of active compound at the stated rate of application. One day after this treatment, the plants are inoculated with an aqueous spore suspension of Pyrenophora teres. The plants remain for 48 hours in an incubation cabinet at 22° C. and a relative atmospheric humidity of 100%. Then the plants are placed in a greenhouse at a temperature of approximately 20° C. and a relative atmospheric humidity of approximately 80%. The test is evaluated 7-9 days after the inoculation. 0% means an efficacy which corresponds to that of the untreated control while an efficacy of 100% means that no disease is observed.

Septoria tritici = experiment: in vivo preventive test on Septoria tritici (wheat); conditions: 500 ppm of active ingredient, evaluated 21 days after inoculation
Description: Solvent: 49 parts by weight of N,N-dimethylacetamide Emulsifier: 1 part by weight of alkylaryl polyglycol ether To produce a suitable preparation of active compound, 1 part by weight of active compound or active compound combination is mixed with the stated amounts of solvent and emulsifier, and the concentrate is diluted with water to the desired concentration. To test for preventive activity, young plants are sprayed with the preparation of active compound or active compound combination at the stated rate of application. After the spray coating has been dried, the plants are sprayed with a spore suspension of Septoria tritici. The plants remain for 48 hours in an incubation cabinet at approximately 20° C. and a relative atmospheric humidity of approximately 100% and afterwards for 60 hours at approximately 15° C. in a translucent incubation cabinet at a relative atmospheric humidity of approximately 100%. The plants are placed in the greenhouse at a temperature of approximately 15° C. and a relative atmospheric humidity of approximately 80%. The test is evaluated 21 days after the inoculation. 0% means an efficacy which corresponds to that of the untreated control, while an efficacy of 100% means that no disease is observed.

[2] = tested on: Blumeria graminis fsp. hordei; experiment: in vivo preventive test on Blumeria graminis (barley); conditions: 500 ppm of active ingredient, evaluated 7 days after inoculation
Description: Solvent: 49 parts by weight of N,N-dimethylacetamide Emulsifier: 1 part by weight of alkylaryl polyglycol ether To produce a suitable preparation of active compound, 1 part by weight of active compound or active compound combination is mixed with the stated amounts of solvent and emulsifier, and the concentrate is diluted with water to the desired concentration. To test for preventive activity, young plants are sprayed with the preparation of active compound or active compound combination at the stated rate of application. After the spray coating has been dried, the plants are dusted with spores of Blumeria graminis fsp. hordei. The plants are placed in the greenhouse at a temperature of approximately 18° C. and a relative atmospheric humidity of approximately 80% to promote the development of mildew pustules. The test is evaluated 7 days after the inoculation. 0% means an efficacy which corresponds to that of the untreated control, while an efficacy of 100% means that no disease is observed.

[3] = tested on: Fusarium nivale (var. majus); experiment: in vivo curative test on Fusarium nivale (wheat); conditions: 500 ppm of active ingredient, evaluated 5 days after inoculation
Description: Solvent: 49 parts by weight of N,N-dimethylacetamide Emulsifier: 1 part by weight of alkylaryl polyglycol ether To produce a suitable preparation of active compound, 1 part by weight of active compound or active compound combination is mixed with the stated amounts of solvent and emulsifier, and the concentrate is diluted with water to the desired concentration. To test for curative activity, young plants are slightly injured by using a sandblast and afterwards they are sprayed with a conidia suspension of Fusarium nivale (var. majus) and placed for 24 hours in a greenhouse under a translucent incubation cabinet at a temperature of approximately 10° C. and a relative atmospheric humidity of approximately 100% and are subsequently sprayed with the preparation of active compound at the stated rate of application. After the spray coating has been dried, the plants remain in the greenhouse under translucent incubation cloches at a temperature of approximately 10° C. and a relative atmospheric humidity of approximately 100%. The test is evaluated 5 days after the inoculation. 0% means an efficacy which corresponds to that of the untreated control, while an efficacy of 100% means that no disease is observed.

Leptosphaeria nodorum = experiment: in vivo preventive test on Leptosphaeria nodorum (wheat); conditions: 500 ppm of active ingredient, evaluated 7-9 days after inoculation
Description: as §1, with “weight of N,N-dimethylacetamide Emulsifier: 1” for “weight of N,N-dimethylformamide Emulsifier: 1”, “sprayed with a preparation of” for “sprayed with the preparation of”, “suspension of Leptosphaeria nodorum. The plants” for “suspension of Pyrenophora teres. The plants”, “of approximately 22° C. and” for “of approximately 20° C. and”, “of approximately 90%. The test” for “of approximately 80%. The test”, “the untreated control, while an” for “the untreated control while an”

[4] = HPLC on reversed-phase column (C 18)
[5] = HPLC, reversed-phase column (C 18)

Row | SMILES | logP [1, 4] | logP [1, 5] | Efficacy (Sphaerotheca fuliginea) [%] | Efficacy (Alternaria solani) [%] | Efficacy (Pyrenophora teres) [%] | Efficacy (Septoria tritici) [%] | Efficacy [2] [%] | Efficacy [3] [%] | Efficacy (Leptosphaeria nodorum) [%]
1 | Cn1nc(C(F)F)c(C(=O)N(Cc2cccs2)C2CC2)c1F [Example 32] | 2.59 | – | 95 | 70 | 100 | – | – | – | –
2 | Cn1nc(C(F)F)c(C(=O)NC2(c3cccs3)CCCC2)c1F [Example 34] | 2.96 | – | 70 | – | – | – | – | – | –
3 | Cc1cc(C(C)N(C(=O)c2c(C(F)F)nn(C)c2F)C2CC2)c(C)s1 (centres unmarked) [Example 48] | 3.62 | – | – | 95 | 100 | 100 | 100 | 86 | 100
4 | CC(c1cccnc1Cl)N(C(=O)c1c(C(F)F)nn(C)c1F)C1CC1 (centres unmarked) [Example 50] | 2.23 | – | 100 | 95 | 100 | 71 | 89 | – | 71
5 | Cn1nc(C(F)F)c(C(=O)N(Cc2cc3ccccc3o2)C2CC2)c1F [Example 71] | 3.11 | – | – | – | 100 | 100 | 89 | 100 | 80
6 | Cn1nc(C(F)F)c(C(=S)N(Cc2cc3ccccc3o2)C2CC2)c1F [Example 73] | 3.76 | – | 85 | 90 | 100 | – | – | – | –
7 | Cn1nc(C(F)F)c(C(=O)N(Cc2c(Cl)cncc2Cl)C2CC2)c1F [Example 115] | 2.54 | – | 83 | 100 | 100 | 86 | – | 71 | 80
8 | Cn1nc(C(F)F)c(C(=S)N(Cc2c(Cl)cncc2Cl)C2CC2)c1F [Example 117] | 3.29 | – | 95 | 100 | 100 | – | – | – | –
9 | Cc1c(CN(C(=S)c2c(C(F)F)nn(C)c2F)C2CC2)sc2ccccc12 [Example 124] | 4.31 | – | 98 | 100 | 100 | – | – | – | –
10 | Cc1nn(-c2ccccc2)nc1CN(C(=O)c1c(C(F)F)nn(C)c1F)C1CC1 [Example 131] | 3.29 | – | 97 | 90 | 95 | – | – | – | –
11 | Cn1nc(C(F)F)c(C(=O)N(Cc2ccnc3ccc(Cl)cc23)C2CC2)c1F [Example 137] | 2.44 | – | 90 | 80 | 100 | – | – | – | –
12 | Cc1nc(C(F)(F)F)c(CN(C(=O)c2c(C(F)F)nn(C)c2F)C2CC2)s1 [Example 140] | 2.75 | – | 100 | 80 | 100 | – | – | – | –
13 | Cn1nc(C(F)F)c(C(=O)N(Cc2csc3ccc(Cl)cc23)C2CC2)c1F [Example 143] | 3.73 | – | 95 | 95 | 100 | 100 | 94 | – | –

More lines, main results first:

Row | logP [1, 4] | logP [1, 5] | SMILES | Efficacy (Sphaerotheca fuliginea) [%] | Efficacy (Alternaria solani) [%] | Efficacy (Pyrenophora teres) [%] | Efficacy (Septoria tritici) [%] | Efficacy [2] [%] | Efficacy [3] [%] | Efficacy (Leptosphaeria nodorum) [%]
14 | 4.36 | – | Cn1nc(C(F)F)c(C(=S)N(Cc2csc3ccc(Cl)cc23)C2CC2)c1F [Example 145] | 93 | 90 | 100 | – | – | – | –
15 | 3.46 | – | Cn1nc(C(F)F)c(C(=O)N(Cc2cc(-c3ccc(Cl)cc3)no2)C2CC2)c1F [Example 153] | – | 90 | 100 | – | – | – | –
16 | 3.46 | – | CSc1ncc(C(C(C)C)N(C)C(=O)c2c(C(F)F)nn(C)c2F)c(C(F)(F)F)n1 (centres unmarked) [Example 157] | – | 70 | 90 | – | – | – | –
17 | 4.26 | – | Cn1nc(C(F)F)c(C(=S)N(Cc2cc(C(F)(F)F)nc3ccccc23)C2CC2)c1F [Example 161] | 100 | – | 100 | – | – | – | –
18 | 3.39 | – | Cn1nc(C(F)F)c(C(=O)N(Cc2ccnc3cc(Cl)cc(Cl)c23)C2CC2)c1F [Example 163] | 100 | – | 94 | – | – | – | –
19 | 3.53 | – | Cn1nc(C(F)F)c(C(=O)N(Cc2cc(-c3cc(F)c(F)c(F)c3)no2)C2CC2)c1F [Example 165] | – | 100 | 100 | – | – | – | –
20 | – | 3.85 | Cc1nc(-c2ccc(Cl)cc2)sc1CN(C(=O)c1c(C(F)F)nn(C)c1F)C1CC1 [Example 167] | – | 90 | 100 | – | – | – | –
21 | – | 2.76 | Cn1nc(C(F)F)c(C(=O)N(Cc2c(C(F)(F)F)nn(C)c2OC(F)F)C2CC2)c1F [Example 170] | 88 | 95 | 100 | – | – | – | –
